Experimental data from EPA's CvTdb concentration-time database.

Columns and labels:
Experiment in all cases: concentration in plasma after dosing
Rat [1] = conditions: 1 h; dosed: Oxazepam; 50 mg/kg; oral; Female; F344
Rat [2] = conditions: dosed: Oxazepam, 50 mg/kg, oral, Male, F344
Rat [3] = conditions: dosed: Oxazepam, 50 mg/kg, oral, Female, F344
Rat [4] = conditions: dosed: Oxazepam, 200 mg/kg, oral, Female, F344
Rat [5] = conditions: 3.5 h; dosed: Oxazepam; 50 mg/kg; oral; Male; F344
Rat [6] = conditions: dosed: Oxazepam, 50 mg/kg, oral, Female, F344; remark: listed apart in the source
Rat [7] = conditions: 3.5 h; dosed: Oxazepam; 50 mg/kg; oral; Male; F344; remark: listed apart in the source
Rat [8] = conditions: dosed: Oxazepam, 400 mg/kg, oral, Female, F344
Rat [9] = conditions: dosed: Oxazepam, 200 mg/kg, oral, Male, F344
Rat [10] = conditions: dosed: Oxazepam, 200 mg/kg, oral, Female, F344; remark: listed apart in the source
Rat [11] = conditions: dosed: Oxazepam, 50 mg/kg, oral, Female, F344; remark: listed apart in the source
Rat [12] = conditions: dosed: Oxazepam, 200 mg/kg, oral, Male, F344; remark: listed apart in the source
Rat [13] = conditions: dosed: Oxazepam, 50 mg/kg, oral, Male, F344; remark: listed apart in the source
Rat [14] = conditions: dosed: Oxazepam, 200 mg/kg, oral, Female, F344; remark: listed apart in the source
Rat [15] = conditions: dosed: Oxazepam, 200 mg/kg, oral, Female, F344; remark: listed apart in the source
Rat [16] = conditions: dosed: Oxazepam, oral, F344
Rat [17] = conditions: dosed: Oxazepam, 200 mg/kg, oral, Female, F344; remark: listed apart in the source
Rat [18] = conditions: dosed: Oxazepam, 50 mg/kg, oral, Male, F344; remark: listed apart in the source
Rat [19] = conditions: dosed: Oxazepam, 50 mg/kg, oral, Male, F344; remark: listed apart in the source
Rat [20] = conditions: 3.5 h; dosed: Oxazepam; 50 mg/kg; oral; Female; F344
Rat [21] = conditions: dosed: Oxazepam, 200 mg/kg, oral, Male, F344; remark: listed apart in the source
Rat [22] = conditions: dosed: Oxazepam, 400 mg/kg, oral, Male, F344
Rat [23] = conditions: dosed: Oxazepam, 200 mg/kg, oral, Female, F344; remark: listed apart in the source
Rat [24] = conditions: dosed: Oxazepam, 200 mg/kg, oral, Female, F344; remark: listed apart in the source
Rat [25] = conditions: dosed: Oxazepam, 50 mg/kg, oral, Female, F344; remark: listed apart in the source
Rat [26] = conditions: dosed: Oxazepam, 200 mg/kg, oral, Female, F344; remark: listed apart in the source
Rat [27] = conditions: dosed: Oxazepam, 200 mg/kg, oral, Male, F344; remark: listed apart in the source
Rat [28] = conditions: 2 h; dosed: Oxazepam; 50 mg/kg; oral; Male; F344
Rat [29] = conditions: dosed: Oxazepam, 200 mg/kg, oral, Male, F344; remark: listed apart in the source
Rat [30] = conditions: dosed: Oxazepam, 50 mg/kg, oral, Female, F344; remark: listed apart in the source
Rat [31] = conditions: dosed: Oxazepam, 200 mg/kg, oral, Male, F344; remark: listed apart in the source
Rat [32] = conditions: dosed: Oxazepam, 400 mg/kg, oral, Male, F344; remark: listed apart in the source
Rat [33] = conditions: dosed: Oxazepam, 400 mg/kg, oral, Female, F344; remark: listed apart in the source
Rat [34] = conditions: dosed: Oxazepam, 200 mg/kg, oral, Male, F344; remark: listed apart in the source
Rat [35] = conditions: dosed: Oxazepam, 200 mg/kg, oral, Male, F344; remark: listed apart in the source
Rat [36] = conditions: dosed: Oxazepam, 50 mg/kg, oral, Male, F344; remark: listed apart in the source
Rat [37] = conditions: dosed: Oxazepam, 50 mg/kg, oral, Female, F344; remark: listed apart in the source

O=C1Nc2ccc(Cl)cc2C(c2ccccc2)=NC1O (stereo not given) [Oxazepam]
Conditions	concentration in plasma [ng/mL]
Rat [1]	1290
Rat [5]	1260
Rat [7]	1070
Rat [20]	2510
Rat [28]	990

Conditions	concentration in plasma [ng/mL]
Rat [2], 6 h	580
Rat [2], 20 min	400
Rat [3], 6 h	1560
Rat [3], 20 min	880
Rat [4], 6 h	4550
Rat [4], 20 min	1250
Rat [6], 6 h	1630
Rat [6], 20 min	760
Rat [8], 1 h	4120
Rat [8], 10 h	5630
Rat [9], 3.5 h	2630
Rat [9], 24 h	520
Rat [10], 6 h	1000
Rat [10], 20 min	1200
Rat [11], 2 h	1620
Rat [11], 18 h	270
Rat [12], 3.5 h	10500
Rat [12], 24 h	1320
Rat [13], 1 h	950
Rat [13], 10 h	390
Rat [14], 3.5 h	4280
Rat [14], 24 h	1460
Rat [15], 1 h	2300
Rat [15], 10 h	1720
Rat [17], 2 h	2840
Rat [17], 18 h	760
Rat [18], 2 h	990
Rat [18], 18 h	370
Rat [19], 6 h	510
Rat [19], 20 min	290
Rat [21], 6 h	1960
Rat [21], 20 min	1020
Rat [22], 1 h	3500
Rat [22], 10 h	1790
Rat [23], 1 h	2880
Rat [23], 10 h	3470
Rat [24], 2 h	3340
Rat [24], 18 h	3360
Rat [25], 2 h	3640
Rat [25], 18 h	270
Rat [26], 3.5 h	2990
Rat [26], 24 h	10000
Rat [27], 6 h	2020
Rat [27], 20 min	1470
Rat [29], 1 h	2310
Rat [29], 10 h	1250
Rat [30], 1 h	1610
Rat [30], 10 h	820
Rat [31], 2 h	2130
Rat [31], 18 h	3140
Rat [32], 1 h	2440
Rat [32], 10 h	3960
Rat [33], 1 h	3270
Rat [33], 10 h	4280
Rat [34], 1 h	1630
Rat [34], 10 h	2030
Rat [35], 2 h	2210
Rat [35], 18 h	1850
Rat [36], 1 h	1280
Rat [36], 10 h	520
Rat [37], 3.5 h	710
Rat [37], 24 h	450

concentration in plasma [ng/mL], Rat [16]
Conditions	1 h	2 h	3.5 h	6 h	10 h	18 h	20 min	24 h
50 mg/kg, Female	2850	1900	1170	1230	1380	280	560	–
50 mg/kg, Male	1230	1000	910	680	330	–	450	590
200 mg/kg, Female	3020	3870	2700	3910	5160	5030	1250	5000
200 mg/kg, Male	2370	–	3150	1580	1890	730	600	2280
400 mg/kg, Female	4100	–	–	–	4480	–	–	–
400 mg/kg, Male	3070	–	–	–	2910	–	–	–
